Data taken from article PMC5716539, “The acute glucose lowering effect of specific GPR120 activation in mice is mainly driven by glucagon-like peptide 1” (PLoS ONE, 2017).

Legend:
[1] = biological target: T1, human GPR120 (Homo sapiens, UniProt Q5NUL3); assay: DMR (dynamic mass redistribution) assay in CHO-hGPR120 cells; type: cell-based; settings: for DMR response after Gαs inhibition: CHO-hGPR120 cells treated with CTX; for DMR response after Gαi inhibition: CHO-hGPR120 cells treated with PTX; for DMR response after Gαq inhibition: CHO-hGPR120 cells treated with QIC; for EC50: mean ± SEM
T1 construct: expressed in transfected cells
T1 sequence (Q5NUL3 1-361): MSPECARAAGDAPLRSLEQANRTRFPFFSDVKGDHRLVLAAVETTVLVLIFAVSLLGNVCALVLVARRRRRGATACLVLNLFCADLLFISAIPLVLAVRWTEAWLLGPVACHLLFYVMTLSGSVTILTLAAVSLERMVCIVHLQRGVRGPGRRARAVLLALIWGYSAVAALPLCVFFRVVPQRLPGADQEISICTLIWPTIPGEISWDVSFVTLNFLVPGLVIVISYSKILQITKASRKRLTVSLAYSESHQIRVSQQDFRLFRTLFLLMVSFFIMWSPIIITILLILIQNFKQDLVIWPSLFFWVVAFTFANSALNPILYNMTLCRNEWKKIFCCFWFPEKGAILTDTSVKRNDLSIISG

[2] = tested on: islets from GPR120 null mice; assay: cAMP production in dispersed islet cells from GPR120 null mice; type: cell-based, mouse; settings: 10 μM agonist
Description: (§1) Mouse islets were isolated from pancreas by collagenase digestion, handpicked under microscope following multiple washing steps and dispersed to single cells using TrypLE Express (Gibco). The dispersed islet cells (20 000 cells/well) were incubated with the GPR120 agonists for 30 min in 96-well black plates (Corning) at 37°C in Krebs ringer phosphate Hepes buffer, pH 7.4, with 11 mM Glucose, 0.1% BSA and 0.5 mM 3-isobutyl-1-methylxanthine followed by addition of d2-labeled cAMP and anti-cAMP Cryptate in conjugation and lysis buffer (Cisbio). Produced cAMP was detected with homogenous time resolved fluorescence (HTRF) (λex = 340 nm, λem = 665 and 615 nm) using a Pherastar (BMG Labtech).

[3] = tested on: dispersed wt mouse islets cell; assay: cAMP production in dispersed wild type mouse islet cells; type: cell-based; settings: 10 μM agonist, vs control cells
Description: as §1

[4] = biological target: T2, mouse GPR120 (Mus musculus, UniProt Q7TMA4); assay: DMR assay in CHO-mGPR120 cells; type: cell-based
T2 construct: expressed in transfected cells
T2 sequence (Q7TMA4 1-361): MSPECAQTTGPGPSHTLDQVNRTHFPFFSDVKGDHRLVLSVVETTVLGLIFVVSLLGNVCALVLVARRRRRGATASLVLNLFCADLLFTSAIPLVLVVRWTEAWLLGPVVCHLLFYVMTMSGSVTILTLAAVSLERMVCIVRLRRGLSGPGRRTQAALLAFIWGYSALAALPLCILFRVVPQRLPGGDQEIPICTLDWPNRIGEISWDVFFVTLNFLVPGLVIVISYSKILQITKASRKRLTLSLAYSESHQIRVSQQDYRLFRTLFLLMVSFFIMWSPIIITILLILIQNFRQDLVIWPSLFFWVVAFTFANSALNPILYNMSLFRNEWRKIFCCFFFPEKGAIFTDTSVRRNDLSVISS
Description: (§2) DMR (dynamic mass redistribution) was measured by resonant waveguide grating (RWG) using an Epic biosensor (Corning). CHO-hGPR120, CHO-mGPR120 and CHO cells in DMEM/F-12 (Invitrogen) were cultured in fibronectin coated 384-well Epic plates (Corning) at 37°C, 95% humidity and 5% CO2 for 5 hours with 10% FBS (Sigma), followed by 19 hours without FBS. CHO-hGPR40 cells were cultured at 37°C, 95% humidity and 5% CO2 for 20–24 hours in Ham’s F-12 Nutrient Mix with GlutaMAX (Invitrogen) supplemented with Non-Essential Amino Acids (Gibco) and 10% FBS (Sigma) in fibronectin coated 384-well Epic plates (Corning). Following the incubations culture media was replaced with HBSS (Invitrogen), 20 mM HEPES (Invitrogen), pH 7.4 and 1% DMSO and equilibrated to 26°C in the Epic for thirty min before addition of agonists and detection of DMR.

[5] = tested on: control CHO cells; assay: DMR assay in control CHO cells; type: cell-based, Chinese hamster; settings: control CHO cells (empty vector)
Description: as §2

[6] = tested on: lean female mice; assay: Intravenous glucose tolerance test (IVGTT) in lean female mice; type: in vivo, mouse; settings: for Basal blood glucose: 4-hour fasted female mice, oral Metabolex-36 100 mg/kg or AZ13581837 35 mg/kg, vehicle 7.8±0.2 mM; for Acute insulin response (AIR): vs controls; for Acute insulin response (AIR) / Glucose elimination between 1 and 20 min / Time after iv glucose bolus up to which insulin levels were significantly elevated: Metabolex-36 100 mg/kg; for Acute insulin response (AIR) / Glucose elimination between 1 and 20 min: AZ13581837 35 mg/kg oral; for Time after iv glucose bolus up to which insulin levels were significantly elevated: oral pre-administration, AZ13581837 35 mg/kg
Description: Lean female mice (body weight 20–25 g), were randomized on body weight and fasted 4 hours prior to the IVGTT. Metabolex-36 (100 mg/kg) was administered orally 60 min and AZ13581837 (35mg/kg) 30 min before the IVGTT ([…]). Control mice were given vehicle (0.5% HPMC, 0.1% Tween-80) at corresponding time points. The specificity of AZ13581837 was examined in IVGTT in GPR120 null mice. GPR120 agonist doses were selected to reach plasma levels of at least 10 times over the in vitro EC50 value to achieve maximal activation of GPR120 (S2 Appendix). Thirty minutes prior to the glucose load, the mice were anaesthetised (20 mg/kg fluanisone/0.8 mg/kg fentanyl (Hypnorm®, Janssen, Beerse, Belgium) and 10 mg/kg midazolam (Dormicum®, Hoffman-LaRoche, Basel, Switzerland)) to allow for rapid blood sampling. The mice were kept at a heating pad to maintain body temperature.
In separate experiments, mice were pretreated with the GLP-1 receptor antagonist exendin 9–39 (30 nmol/kg, Bachem; intraperitoneally) alone or in combination with the GPR120 agonists, 15 min prior to the IVGTT. Insulin and glucose were measured 0, 1, 5, 10, 20 and 40 min after intravenous (iv) glucose administration. In separate groups of mice total GLP-1 levels were measured 60 min after oral administration of Metabolex-36 or 30 min after AZ13581837 and in corresponding vehicle (0.5% HPMC, 0.1% Tween-80) dosed mice. Blood samples were collected in EDTA coated tubes, centrifuged at 10000xg for 4 min, and plasma was separated and stored frozen until analyzed.
In the IVGTT, the acute insulin response (AIR) was calculated as the mean of suprabasal 1 and 5 min values, and the glucose elimination was quantified using the glucose elimination constant (KG) calculated as the slope of the logarithmic transformation of circulating glucose between 1 and 20 min after the glucose bolus. Multiple comparisons between the different groups were performed by one-way ANOVA. Tukey’s or Bonferroni’s post hoc test were used to calculate statistical differences between the groups. Significant statistical difference was considered at p<0.05. Data are presented as mean ± SEM.

[7] = biological target: human GPR40 (Homo sapiens, UniProt O14842); assay: DMR assay in CHO-hGPR40 cells; type: cell-based
human GPR40, sequence (O14842 whole entry): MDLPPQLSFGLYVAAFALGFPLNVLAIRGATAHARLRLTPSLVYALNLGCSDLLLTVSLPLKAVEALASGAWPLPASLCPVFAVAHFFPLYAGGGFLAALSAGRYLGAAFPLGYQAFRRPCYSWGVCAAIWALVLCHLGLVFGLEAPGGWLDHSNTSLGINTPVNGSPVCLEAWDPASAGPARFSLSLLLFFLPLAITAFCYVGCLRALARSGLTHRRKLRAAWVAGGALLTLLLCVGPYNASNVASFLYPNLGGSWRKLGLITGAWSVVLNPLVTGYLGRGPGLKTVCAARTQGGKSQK
Description: as §2

[8] = exendin 9–39 30 nmol/kg i.p. 15 min prior to IVGTT

| Molecule | DMR response after Gαs inhibition [1] | DMR response after Gαi inhibition [1] | DMR response after Gαq inhibition [1] | EC50 ([1]; CHO-hGPR120 cells) [nM] | cAMP production in islets from GPR120 null mice [2] | cAMP production in dispersed wt mouse islet cells [3] | EC50 [4] [nM] | DMR response in control CHO cells [5] | Basal blood glucose [6] [mM] | Acute insulin response (AIR) ([6]; IVGTT) | Glucose elimination between 1 and 20 min ([6]; IVGTT) | Agonist-induced increase in insulin secretion after co-administration with exendin 9–39 [6, 8] | Time after iv glucose bolus up to which insulin levels were significantly elevated [6] | DMR response in CHO-hGPR40 cells [7] | further results |
| --- | --- | --- | --- | --- | --- | --- | --- | --- | --- | --- | --- | --- | --- | --- | --- |
| C#Cc1cc(Oc2cccnc2)cc(N2Cc3ccccc3S2(=O)=O)c1 [AZ13581837, 2-(3-ethynyl-5-(3-pyridyloxy)phenyl)-3H-1,2-benzothiazole 1,1-dioxide] | partly blocked | did not result in any significant decrease | only partly reduced | 5.2 ± 0.6 | no effect | significantly reduced cAMP production | 4.3 ± 0.6 | without activity | 7.1 ± 0.3 | significant increase | increased the glucose elimination | completely abolished | up to 10 minutes | Neither AZ13581837 nor Metabolex-36 were able to induce a DMR response | Potency relative to Metabolex-36 in DMR response ([1]; CHO-hGPR120 cells, fold more potent than Metabolex-36): about 100 fold; Insulin secretion in IVGTT (agonist alone) ([6]; exendin 9–39 experiment, agonist alone vs vehicle): significant increase; Acute insulin secretion in wt mice ([6]; female wild type mice, AZ13581837 30 min prior to iv glucose, vs vehicle, p<0.05): significantly increased; Glucose elimination in wt mice compared to compound treated GPR120 null mice ([6]; female wt mice, IVGTT, p<0.05): increased |
| 3-(3,5-difluoro-4-((3-methyl-1-phenyl-1H-pyrazol-5-yl)methoxy)phenyl)-2-methylpropanoic acid [Metabolex-36] | partly blocked | did not result in any significant decrease | only partly reduced | 570 ± 150 | no effect | significantly reduced cAMP production | 130 ± 20 | without activity | 6.9 ± 0.2 | significant increase | increased the glucose elimination | abolished | up to 5 minutes | Neither AZ13581837 nor Metabolex-36 were able to induce a DMR response | Acute insulin response when given together with exendin 9–39 [6, 8]: reduced to vehicle levels; Glucose elimination when given together with exendin 9–39 [6, 8]: reduced to vehicle levels; Glucose lowering effect in combination with exendin 9–39 [6, 8]: abolished |
